Paper PMC12888861, “Antibacterial activity of enmetazobactam against Acinetobacter spp.: a molecular dissection of mechanism of action and resistance determinants” (Antimicrobial Agents and Chemotherapy, 2025)

Tested on: carbapenem-resistant A. baumannii (CRAB) isolates (n = 67)
Experiment: MIC, broth microdilution (EUCAST), carbapenem-resistant A. baumannii isolates
Assay type: cell-based, Acinetobacter baumannii
Conditions: for MIC: Acinetobacter baumannii
From the text: The bacterial strains used in this study comprised 208 clinical isolates from the Spanish National Acinetobacter spp. 2020 Multicenter Collection, which was previously characterized in detail by our research group, including whole-genome sequencing, phylogenetics studies, clonal dynamics, and resistance mechanisms ([2], [29]). Additionally, a collection of A. baumannii ATCC 17978 transformants coding the blaOXA-23, blaOXA-24/40, blaOXA-51, blaOXA-58, blaOXA-143, and blaOXA-201 genes, previously constructed and described by our group ([30]), was used to determine the activity of enmetazobactam against strains carrying the main CHDLs of A. baumannii.
The antimicrobial susceptibility of the 208 Acinetobacter spp. isolates was assessed using the broth microdilution method, as described in the European Committee on Antimicrobial Susceptibility Testing (EUCAST) v.15 guidelines (http://www.eucast.org/clinical_breakpoints). […] MICs for enmetazobactam alone were assessed as well. […] Subsequently, MIC testing was also conducted with a collection of A. baumannii ATCC 17978 transformants expressing clinically relevant OXA-like carbapenemase genes.
The A. baumannii ATCC 19606 strain was used as the reference strain in all susceptibility experiments, in duplicate assays. Antibiotics were purchased from Sigma-Aldrich, except enmetazobactam and durlobactam, which were obtained from Advanz Pharma and MedChemExpress, respectively.

[1] = CHDLs-producing A. baumannii isolates (n = 67), durlobactam series, DUR fixed 4 mg/L in combinations

C[n+]1ccn(C[C@@]2(C)[C@H](C(=O)[O-])N3C(=O)C[C@H]3S2(=O)=O)n1 [enmetazobactam]
100: MIC distribution 64 (cumulative share of CRAB isolates (n = 67) at MIC 64 mg/L, ETZ fixed 8 mg/L in combinations)
8 µg/mL: MIC (MBC set, isolate Ab9, A. baumannii ST 2, ADC-30, OXA-66, OXA-23, TEM-12) | MIC (isolate Ab133, ST 2, ADC-30, OXA-66, OXA-58, TEM-12, DUR fixed at 4 mg/L in combinations) | MIC (isolate Ab133, ST 2, ADC-30, OXA-66, OXA-58, TEM-12, ETZ fixed 8 mg/L in combinations) | MIC (isolate Ab134, ST 2, ADC-30, OXA-66, OXA-58, TEM-12, DUR fixed at 4 mg/L in combinations) | MIC (isolate Ab134, ST 2, ADC-30, OXA-66, OXA-58, TEM-12, ETZ fixed 8 mg/L in combinations) | MIC (isolate Ab141, ST 745, ADC-30, OXA-66, OXA-58, DUR fixed at 4 mg/L in combinations) | MIC (isolate Ab141, ST 745, ADC-30, OXA-66, OXA-58, ETZ fixed 8 mg/L in combinations)
64 µg/mL: MIC (MBC set, isolate Ab4, A. baumannii ST 2, ADC-30, OXA-66, ISAba1-OXA-23) | MIC (MBC set, isolate Ab6, A. baumannii ST 2, ADC-30, OXA-66, ISAba1-OXA-23, TEM-12) | MIC (isolate Ab56, ST 1, ADC-75, OXA-69, OXA-23, ETZ fixed 8 mg/L in combinations) | MIC (isolate Ab83, ST 25, ADC-5, OXA-64, OXA-23, DUR fixed at 4 mg/L in combinations) | MIC (isolate Ab83, ST 25, ADC-5, OXA-64, OXA-23, ETZ fixed 8 mg/L in combinations) | MIC (isolate Ab137, ST 85, ADC-2, OXA-94, OXA-23, DUR fixed at 4 mg/L in combinations) | MIC (isolate Ab137, ST 85, ADC-2, OXA-94, OXA-23, ETZ fixed 8 mg/L in combinations) | MIC (isolate Ab138, ST 745, ADC-30, OXA-66, OXA-58, DUR fixed at 4 mg/L in combinations) | MIC (isolate Ab138, ST 745, ADC-30, OXA-66, OXA-58, ETZ fixed 8 mg/L in combinations) | MIC (isolate Ab140, ST 85, ADC-2, OXA-94, OXA-23, DUR fixed at 4 mg/L in combinations) | MIC (isolate Ab140, ST 85, ADC-2, OXA-94, OXA-23, ETZ fixed 8 mg/L in combinations) | MIC (isolate Ab169, ST 2, ADC-30, OXA-66, OXA-23, ETZ fixed 8 mg/L in combinations) | MIC (isolate Ab171, ST 2, ADC-30, OXA-66, OXA-23, ETZ fixed 8 mg/L in combinations) | MIC (isolate Ab173, ST 2, ISAba1-ADC-30, OXA-66, OXA-23, DUR fixed at 4 mg/L in combinations) | MIC (isolate Ab173, ST 2, ISAba1-ADC-30, OXA-66, OXA-23, ETZ fixed 8 mg/L in combinations) | MIC (isolate Ab174, ST 2, ADC-30, OXA-66, OXA-23, DUR fixed at 4 mg/L in combinations) | MIC (isolate Ab174, ST 2, ADC-30, OXA-66, OXA-23, ETZ fixed 8 mg/L in combinations) | MIC (isolate Ab179, ST 2, ADC-30, OXA-66, OXA-23, DUR fixed at 4 mg/L in combinations) | MIC (isolate Ab179, ST 2, ADC-30, OXA-66, OXA-23, ETZ fixed 8 mg/L in combinations) | MIC (isolate Ab191, ST 2, ADC-30, OXA-66, OXA-23, DUR fixed at 4 mg/L in combinations) | MIC (isolate Ab191, ST 2, ADC-30, OXA-66, OXA-23, ETZ fixed 8 mg/L in combinations) | MIC (isolate Ab192, ST 2, ADC-30, OXA-66, OXA-23, ETZ fixed 8 mg/L in combinations) | MIC (isolate Ab194, ST 2, ADC-30, OXA-66, OXA-23, DUR fixed at 4 mg/L in combinations) | MIC (isolate Ab194, ST 2, ADC-30, OXA-66, OXA-23, ETZ fixed 8 mg/L in combinations) | MIC (isolate Ab201, ST 2, ADC-30, OXA-66, OXA-23, DUR fixed at 4 mg/L in combinations) | MIC (isolate Ab201, ST 2, ADC-30, OXA-66, OXA-23, ETZ fixed 8 mg/L in combinations)
16 µg/mL: MIC (isolate Ab182, ST 2, ADC-30, OXA-66, OXA-23, DUR fixed at 4 mg/L in combinations) | MIC (isolate Ab182, ST 2, ADC-30, OXA-66, OXA-23, ETZ fixed 8 mg/L in combinations)
10.4%: MIC distribution 4 (cumulative % of CHDLs-producing A. baumannii isolates (n = 67) at MIC 4 mg/L, DUR fixed 4 mg/L in combinations)
22.4%: MIC distribution 8 (cumulative % of CHDLs-producing A. baumannii isolates (n = 67) at MIC 8 mg/L, DUR fixed 4 mg/L in combinations)
46.3%: MIC distribution 32 (cumulative % of CHDLs-producing A. baumannii isolates (n = 67) at MIC 32 mg/L, DUR fixed 4 mg/L in combinations)
41.8: MIC distribution 32 (cumulative share of CRAB isolates (n = 67) at MIC 32 mg/L, ETZ fixed 8 mg/L in combinations)
0: MIC distribution 0.12 (cumulative share of CRAB isolates (n = 67) at MIC 0.12 mg/L, ETZ fixed 8 mg/L in combinations) | MIC distribution 0.25 (cumulative share of CRAB isolates (n = 67) at MIC 0.25 mg/L, ETZ fixed 8 mg/L in combinations) | MIC distribution 0.5 (cumulative share of CRAB isolates (n = 67) at MIC 0.5 mg/L, ETZ fixed 8 mg/L in combinations) | MIC distribution 1 (cumulative share of CRAB isolates (n = 67) at MIC 1 mg/L, ETZ fixed 8 mg/L in combinations) | MIC distribution 2 (cumulative share of CRAB isolates (n = 67) at MIC 2 mg/L, ETZ fixed 8 mg/L in combinations) | MIC distribution ≤0.06 (cumulative share of CRAB isolates (n = 67) at MIC ≤0.06 mg/L, ETZ fixed 8 mg/L in combinations)
100%: MIC distribution ≥64 (cumulative % of CHDLs-producing A. baumannii isolates (n = 67) at MIC ≥64 mg/L, DUR fixed 4 mg/L in combinations)
19.4: MIC distribution 8 (cumulative share of CRAB isolates (n = 67) at MIC 8 mg/L, ETZ fixed 8 mg/L in combinations)
25.4%: MIC distribution 16 (cumulative % of CHDLs-producing A. baumannii isolates (n = 67) at MIC 16 mg/L, DUR fixed 4 mg/L in combinations)
10.4: MIC distribution 4 (cumulative share of CRAB isolates (n = 67) at MIC 4 mg/L, ETZ fixed 8 mg/L in combinations)
64 mg/L: MIC50 [1] | MIC90 [1]
32 µg/mL: MIC (isolate Ab109, ST 1, ADC-75, OXA-69, OXA-23, DUR fixed at 4 mg/L in combinations) | MIC (isolate Ab109, ST 1, ADC-75, OXA-69, OXA-23, ETZ fixed 8 mg/L in combinations) | MIC (isolate Ab144, ST 745, ADC-30, OXA-66, OXA-58, DUR fixed at 4 mg/L in combinations) | MIC (isolate Ab144, ST 745, ADC-30, OXA-66, OXA-58, ETZ fixed 8 mg/L in combinations) | MIC (isolate Ab169, ST 2, ADC-30, OXA-66, OXA-23, DUR fixed at 4 mg/L in combinations) | MIC (isolate Ab171, ST 2, ADC-30, OXA-66, OXA-23, DUR fixed at 4 mg/L in combinations) | MIC (isolate Ab180, ST 2, ADC-30, OXA-66, OXA-24/40, DUR fixed at 4 mg/L in combinations) | MIC (isolate Ab180, ST 2, ADC-30, OXA-66, OXA-24/40, ETZ fixed 8 mg/L in combinations) | MIC (isolate Ab181, ST 2, ADC-30, OXA-66, OXA-23, DUR fixed at 4 mg/L in combinations) | MIC (isolate Ab181, ST 2, ADC-30, OXA-66, OXA-23, ETZ fixed 8 mg/L in combinations) | MIC (isolate Ab183, ST 2, ADC-30, OXA-66, OXA-23, DUR fixed at 4 mg/L in combinations) | MIC (isolate Ab183, ST 2, ADC-30, OXA-66, OXA-23, ETZ fixed 8 mg/L in combinations) | MIC (isolate Ab184, ST 2, ADC-30, OXA-66, OXA-23, DUR fixed at 4 mg/L in combinations) | MIC (isolate Ab184, ST 2, ADC-30, OXA-66, OXA-23, ETZ fixed 8 mg/L in combinations) | MIC (isolate Ab186, ST 2, ADC-30, OXA-66, OXA-23, DUR fixed at 4 mg/L in combinations) | MIC (isolate Ab186, ST 2, ADC-30, OXA-66, OXA-23, ETZ fixed 8 mg/L in combinations) | MIC (isolate Ab192, ST 2, ADC-30, OXA-66, OXA-23, DUR fixed at 4 mg/L in combinations) | MIC (isolate Ab199, ST 2, ADC-30, OXA-66, OXA-23, DUR fixed at 4 mg/L in combinations) | MIC (isolate Ab199, ST 2, ADC-30, OXA-66, OXA-23, ETZ fixed 8 mg/L in combinations) | MIC (isolate Ab204, ST 2, ADC-30, OXA-66, OXA-23, DUR fixed at 4 mg/L in combinations) | MIC (isolate Ab204, ST 2, ADC-30, OXA-66, OXA-23, ETZ fixed 8 mg/L in combinations)
25.4: MIC distribution 16 (cumulative share of CRAB isolates (n = 67) at MIC 16 mg/L, ETZ fixed 8 mg/L in combinations)
0.0%: MIC distribution 0.12 (cumulative % of CHDLs-producing A. baumannii isolates (n = 67) at MIC 0.12 mg/L, DUR fixed 4 mg/L in combinations) | MIC distribution 0.25 (cumulative % of CHDLs-producing A. baumannii isolates (n = 67) at MIC 0.25 mg/L, DUR fixed 4 mg/L in combinations) | MIC distribution 0.5 (cumulative % of CHDLs-producing A. baumannii isolates (n = 67) at MIC 0.5 mg/L, DUR fixed 4 mg/L in combinations) | MIC distribution 1 (cumulative % of CHDLs-producing A. baumannii isolates (n = 67) at MIC 1 mg/L, DUR fixed 4 mg/L in combinations) | MIC distribution 2 (cumulative % of CHDLs-producing A. baumannii isolates (n = 67) at MIC 2 mg/L, DUR fixed 4 mg/L in combinations) | MIC distribution ≤0.06 (cumulative % of CHDLs-producing A. baumannii isolates (n = 67) at MIC ≤0.06 mg/L, DUR fixed 4 mg/L in combinations)
